The values below are quoted from earlier work in patent US10610500B2, “Chemosensory receptor ligand-based therapies” (Anji Pharma (US) LLC, priority 2011, dated 2020).

The first data set addresses T1, sweet receptor (Homo sapiens, UniProt Q7RTX0+Q8TE23).
T1 sequence (Q8TE23 20-839): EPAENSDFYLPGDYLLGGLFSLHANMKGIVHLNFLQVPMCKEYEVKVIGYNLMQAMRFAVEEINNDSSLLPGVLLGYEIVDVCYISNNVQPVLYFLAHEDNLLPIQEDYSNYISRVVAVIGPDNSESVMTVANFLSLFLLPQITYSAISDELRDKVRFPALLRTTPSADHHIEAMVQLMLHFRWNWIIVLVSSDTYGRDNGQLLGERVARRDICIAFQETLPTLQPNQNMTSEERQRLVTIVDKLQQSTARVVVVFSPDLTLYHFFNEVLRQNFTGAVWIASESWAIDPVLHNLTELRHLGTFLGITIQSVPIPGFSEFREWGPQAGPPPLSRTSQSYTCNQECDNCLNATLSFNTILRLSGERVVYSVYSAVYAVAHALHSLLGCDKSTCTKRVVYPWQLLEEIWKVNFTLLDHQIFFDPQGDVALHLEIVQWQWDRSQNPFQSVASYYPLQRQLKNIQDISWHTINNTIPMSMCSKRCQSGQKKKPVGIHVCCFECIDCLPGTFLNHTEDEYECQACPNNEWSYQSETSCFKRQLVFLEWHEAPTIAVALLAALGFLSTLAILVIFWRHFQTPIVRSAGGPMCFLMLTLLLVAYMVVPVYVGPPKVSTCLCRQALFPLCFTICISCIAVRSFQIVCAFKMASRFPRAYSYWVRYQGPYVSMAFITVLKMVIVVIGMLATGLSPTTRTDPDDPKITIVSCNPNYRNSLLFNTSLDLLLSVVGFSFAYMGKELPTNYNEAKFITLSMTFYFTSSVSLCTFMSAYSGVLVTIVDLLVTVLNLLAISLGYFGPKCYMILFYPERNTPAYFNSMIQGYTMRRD
T1 sequence (Q7RTX0 21-852): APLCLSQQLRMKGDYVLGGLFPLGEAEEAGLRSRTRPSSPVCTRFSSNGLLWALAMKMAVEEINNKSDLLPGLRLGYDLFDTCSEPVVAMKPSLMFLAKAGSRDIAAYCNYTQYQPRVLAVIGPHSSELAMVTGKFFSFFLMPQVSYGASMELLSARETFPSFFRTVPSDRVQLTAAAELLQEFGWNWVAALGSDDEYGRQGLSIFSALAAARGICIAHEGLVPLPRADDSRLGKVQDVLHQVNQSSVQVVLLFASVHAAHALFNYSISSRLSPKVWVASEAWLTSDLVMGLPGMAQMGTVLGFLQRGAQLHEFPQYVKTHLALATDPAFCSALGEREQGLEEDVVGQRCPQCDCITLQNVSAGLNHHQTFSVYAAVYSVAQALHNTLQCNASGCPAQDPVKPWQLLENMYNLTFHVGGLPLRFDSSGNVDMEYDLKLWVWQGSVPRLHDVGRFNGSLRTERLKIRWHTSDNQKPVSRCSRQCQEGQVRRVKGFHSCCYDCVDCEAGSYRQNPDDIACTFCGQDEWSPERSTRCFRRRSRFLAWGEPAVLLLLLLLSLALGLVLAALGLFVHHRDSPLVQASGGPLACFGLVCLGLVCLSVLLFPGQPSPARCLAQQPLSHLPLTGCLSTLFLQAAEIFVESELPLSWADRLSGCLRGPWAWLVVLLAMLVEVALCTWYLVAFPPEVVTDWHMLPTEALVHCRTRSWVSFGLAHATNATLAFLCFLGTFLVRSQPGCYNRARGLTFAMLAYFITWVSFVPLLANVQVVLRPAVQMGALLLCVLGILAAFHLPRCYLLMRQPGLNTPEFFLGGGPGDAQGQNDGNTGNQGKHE
As to conditions: relative sweetness on a weight comparison basis to sucrose (=1.0); ranges: relative sweetness varied with the concentration of sucrose.
Take “Brazzein: sweet protein of Pentadiplandra brazzeana Baillon (QDKCKKVYENYPVSKCQLANQCNYDCKLDKHARSGECFYDEKRNLQCICDYCEY; UniProt P56552 1-54, looked up)”: the Sweetness/potency is listed as 2,000. On to `COc1ccc([C@H]2Cc3cccc(O)c3C(=O)O2)cc1O` [Phyllodulcin], for which the Sweetness/potency was 400. Regarding Rebaudioside C, the Sweetness/potency is reported as 30. Take `COc1ccc(CCC(=O)c2c(O)cc(O[C@@H]3O[C@H](CO)[C@@H](O)[C@H](O)[C@H]3O[C@@H]3O[C@@H](C)[C@H](O)[C@@H](O)[C@H]3O)cc2O)cc1O` [Neohesperidin dihydrochalcone]: the Sweetness/potency is listed as 1,000.

Regarding `CC[C@@H](C)C(=O)O[C@@H](C)[C@]1(O)CC[C@]2(O)[C@@H]3CC[C@H]4C[C@@H](O[C@@H]5C[C@H](O)[C@H](O[C@H]6C[C@H](OC)[C@H](O[C@H]7C[C@@H](OC)[C@H](O[C@H]8C[C@@H](OC)[C@H](O[C@@H]9O[C@H](C)[C@@H](O[C@@H]%10O[C@H](CO)[C@@H](O)[C@H](O)[C@H]%10O)[C@H](OC)[C@H]9O)[C@@H](C)O8)[C@@H](C)O7)[C@@H](C)O6)[C@@H](C)O5)CC[C@]4(C)[C@H]3C[C@@H](OC(C)=O)[C@]12C` [Telosmoside A15], the Sweetness/potency is 1000. Regarding `CC(=O)O[C@H]1C(=O)c2c(O)cc(O)cc2O[C@@H]1c1ccc(O)c(O)c1` [(2R,3R)-Dihydroquercetin 3-O-acetate], the Sweetness/potency is recorded as 80.

With `C/C(=C\CC[C@@H](C)[C@H]1CC[C@@]2(C)[C@@H]3CC=C4[C@@H](CC[C@H](O[C@@H]5O[C@H](CO)[C@@H](O)[C@H](O)[C@H]5O)C4(C)C)[C@]3(C)[C@H](O)C[C@]12C)CO[C@@H]1O[C@H](CO[C@@H]2O[C@H](CO)[C@@H](O)[C@H](O)[C@H]2O)[C@@H](O)[C@H](O)[C@H]1O` [Carnosifloside VI], the Sweetness/potency was 77. For the compound Pterocaryoside A, the Sweetness/potency is on record as 50.

For the compound `CC(C)=CCC[C@](C)(O)[C@@H]1CCC(C)=CC1=O` [(+)-Hernandulcin], the Sweetness/potency is on record as 1,500. For Pentadin, the Sweetness/potency is on record as 500. For the compound `COC(=O)[C@H]1O[C@@H](O[C@H]2[C@H](O[C@H]3CC[C@]45C[C@]46CC[C@]4(C)[C@@H]([C@H](C)[C@@H]7CC=C(C)C(=O)O7)CC[C@@]4(C)[C@@H]6CC[C@H]5[C@]3(C)C(=O)O)O[C@H](CO)[C@@H](O)[C@@H]2O)[C@H](O)[C@@H](O)[C@@H]1O` [Abrusoside B], the Sweetness/potency is 100. Take Monellin: the Sweetness/potency is 3,000. `CC1(C(=O)O)CCC2(C)CCC3(C)C(=CC(=O)C4C5(C)CCC(OC6OC(C(=O)O)C(O)C(O)C6OC6OCC(O)(CO)C6O)C(C)(C)C5CCC43C)C2C1` (centres unmarked) [Apioglycyrrhizin]: the Sweetness/potency is recorded as 300.

Consider `C/C(=C\CO)CCC1=C(C=O)CC(OC2OCC(O)C(O)C2O)C2C(C)(CO)CCCC12C` (centres unmarked) [Gaudichaudioside A], for which the Sweetness/potency is 55. For `COc1ccc(C2Oc3cc(O)cc(O)c3C(=O)C2OC(C)=O)cc1O` (centres unmarked) [Dihydroquercetin 3-O-acetate 4'-methyl ether], the Sweetness/potency is listed as 400.

Regarding Baiyunoside, the Sweetness/potency was 500. As for Carnosifloside V, the Sweetness/potency is 51.

Regarding `Oc1cc2c(cc1O)[C@@H]1c3ccc(O)c(O)c3OC[C@]1(O)C2` [Hematoxylin], the Sweetness/potency is recorded as 120. Turning to `C=C1C[C@@]23CC[C@H]4[C@@](C)(CCC[C@@]4(C)C(=O)O)[C@@H]2CC[C@]1(O[C@@H]1O[C@H](CO)[C@@H](O)[C@H](O)[C@H]1O[C@@H]1O[C@H](CO)[C@@H](O)[C@H](O)[C@H]1O)C3` [Steviolbioside], the Sweetness/potency is 90. Consider `COc1c(O)cc2c(c1O)C(=O)[C@H](O)[C@@H](c1ccc(O)c(O)c1)O2` [(2R,3R)-2,3-Dihydro-5,7,3',4'-tetrahydroxy-6-methoxyflavonol], for which the Sweetness/potency is recorded as 15. As for Thaumatin, the Sweetness/potency is recorded as 1,600.

Turning to `C=C(C)[C@@H]1CC=C(/C=N/O)CC1` [Perillartine], the Sweetness/potency is given as 370. On to Curculin, for which the Sweetness/potency is reported as 550. In the case of `CC1(C)[C@@H](O[C@H]2O[C@H](C(=O)O)[C@@H](O)[C@H](O)[C@H]2O[C@@H]2OC[C@H](O)[C@H](O)[C@H]2O)CC[C@]2(C)[C@H]3C(=O)C=C4[C@@H]5C[C@@](C)(C(=O)O)CC[C@]5(C)CC[C@@]4(C)[C@]3(C)CC[C@@H]12` [Araboglycyrrhizin], the Sweetness/potency is given as 150.

On to `C/C=C/c1ccc(OC)cc1` [trans-Anethole], for which the Sweetness/potency was 13. On to `COc1c(O)cc2c(c1O)C(=O)[C@H](OC(C)=O)[C@@H](c1ccc(O)c(O)c1)O2` [(2R,3R)-2,3-Dihydro-5,7,3',4'-tetrahydroxy-6-methoxy-3-O-acetylflavonol], for which the Sweetness/potency was 25. As to `C=C(C)C1CCC2(C)C(CC(OC3OCC(O)C(O)C3O)C3C(C(C)(O)C/C=C/C(C)(C)O)CCC32C)C1(C)CCC(=O)O` (centres unmarked) [Pterocaryoside B], the Sweetness/potency was 100. Consider Cyclocaryoside I, for which the Sweetness/potency is 250. For Periandrin IV, the Sweetness/potency is 85. `CC1=CC[C@@H]([C@@H](C)[C@H]2CC[C@@]3(C)[C@@H]4CC[C@H]5[C@](C)(C(=O)O)[C@@H](O[C@@H]6O[C@H](CO)[C@@H](O)[C@H](O)[C@H]6O[C@@H]6O[C@H](CO)[C@@H](O)[C@H](O)[C@H]6O)CC[C@@]56C[C@@]46CC[C@]23C)OC1=O` [Abrusoside C]: the Sweetness/potency was 50. As to `Oc1ccc([C@H]2Oc3c(c(O)cc4c3[C@H]3c5c(O)cc(O)cc5O[C@@](c5ccc(O)cc5)(O4)[C@@H]3O)[C@H](c3c(O)cc(O)c4c3O[C@H](c3ccc(O)cc3)[C@@H](O)C4)[C@H]2O)cc1` [Selligueain A], the Sweetness/potency was 35.

In the case of `C[C@@H]1O[C@@H](O[C@H]2[C@H](Oc3cc(O)c(C(=O)CCc4ccc(O)cc4)c(O)c3)O[C@H](CO)[C@@H](O)[C@@H]2O)[C@H](O)[C@H](O)[C@H]1O` [Naringin dihydrochalcone], the Sweetness/potency is on record as 300. As to `CC1(C(=O)O)C=C2C3CCC4C5(C=O)CCC(OC6OC(C(=O)O)C(O)C(O)C6OC6OCC(O)C(O)C6O)C(C)(C)C5CCC4(C)C3(C)CCC2(C)CC1` (centres unmarked) [Periandrin V], the Sweetness/potency is on record as 220.

Another data set relates to L cells located in the gut. As to conditions: administration of metformin.
With `CN(C)C(=N)N=C(N)N` [metformin], the “release of GLP-1 from the L cells” value is reported as “increases”.

The next data set has as its system gut hormones. As to conditions: humans.
Consider `C=C1C[C@@]23CC[C@H]4[C@@](C)(CCC[C@@]4(C)C(=O)O[C@@H]4O[C@H](CO)[C@@H](O)[C@H](O)[C@H]4O)[C@@H]2CC[C@]1(O[C@@H]1O[C@H](CO)[C@@H](O)[C@H](O[C@@H]2O[C@H](CO)[C@@H](O)[C@H](O)[C@H]2O)[C@H]1O[C@@H]1O[C@H](CO)[C@@H](O)[C@H](O)[C@H]1O)C3` [Rebaudioside A], for which the “gut hormones in the circulation” value is “no alterations”.
